Measurements published in US4670542A, “New antibiotics, preparation and use of and intermediates therefor” (Bayer Aktiengesellschaft, priority 1983, dated 1987).
Starred links: 1 amine or outer side, 2 acyl side, 3 side chain; linkers in the order of their positions; H or OH if unused. Non-standard residues stand in square brackets, D forms with d. Residues, ends and D or L forms follow the SMILES beside them. ξ: configuration not given here. X1 = Cn1c(=NC(N)=O)ccn(C2SC(C(O)C(N[*:1])C(=O)[*:2])C(O)C2O)c1=O; Orn(N5-OH,N5-Ac) = CC(=O)N(O)CCC[C@H](N)C(=O)O; ξT = CC(O)C(N)C(=O)O; ξA = CC(N)C(=O)O

Tests used:
Test in all cases: Hole test, inhibiting areola diameter, medium DST agar
Assay type in all cases: cell-based
E. coli 14 = test system: E. coli 14
From the text: (§1) Activity against the germs listed below is found in vitro, on the basis of the diameter of the inhibiting areola.

E. coli T 7 = test system: E. coli T 7; parameters: unit not given here
From the text: as §1

Klebs. 57 USA = conditions: 100 ug/ml
From the text: as §1

Prot. 1017 = conditions: 1000 ug/ml
From the text: as §1

Staph. 133 = conditions: 1000 ug/ml
From the text: as §1

Row | SMILES | Inhibiting areola diameter E. coli 14 (E. coli 14; 10 ug/ml) | Inhibiting areola diameter E. coli 14 (E. coli 14; 100 ug/ml) | Inhibiting areola diameter E. coli T 7 (E. coli T 7; 10 ug/ml) | Inhibiting areola diameter E. coli T 7 (E. coli T 7; 100 ug/ml) | Inhibiting areola diameter Klebs. 57 USA (Klebs. 57 USA) | Inhibiting areola diameter E. coli 14 (E. coli 14; 1000 ug/ml) | Inhibiting areola diameter Prot. 1017 (Prot. 1017) | Inhibiting areola diameter E. coli T 7 (E. coli T 7; 1000 ug/ml) | Inhibiting areola diameter Staph. 133 (Staph. 133)
1 | CC(=O)N(O)CCC[C@H](NC(=O)[C@H](CCCN(O)C(C)=O)NC(=O)[C@@H](N)CCCN(O)C(C)=O)C(=O)NC(C)C(=O)NC(C(=O)O)C(O)C1SC(n2ccc(=NC(N)=O)n(C)c2=O)C(O)C1O (some centres unmarked) [Compound 9, Peptidyl-nucleoside] (H-[Orn(N5-OH,N5-Ac)][Orn(N5-OH,N5-Ac)][Orn(N5-OH,N5-Ac)][ξA][X1]-OH) | 30 | 34 | 28 | 34 | – | – | – | – | –
2 | CC(=O)N(O)CCC[C@H](N)C(=O)NC(C(=O)O)C(O)C1SC(n2ccc(=NC(N)=O)n(C)c2=O)C(O)C1O (some centres unmarked) [Compound 11] | – | 13 | 13 | 18 | 18 | – | – | – | –
3 | CC(=O)N(O)CCC[C@H](NC(=O)[C@H](CCCN(O)C(C)=O)NC(=O)[C@@H](N)CCCN(O)C(C)=O)C(=O)NC(C(=O)O)C(O)C1SC(n2ccc(=NC(N)=O)n(C)c2=O)C(O)C1O (some centres unmarked) [Compound 13] | – | – | – | – | – | 20 | 20 | 19 | –
4 | CC(=O)N(O)CCC[C@H](NC(=O)[C@H](CCCN(O)C(C)=O)NC(=O)[C@@H](N)CCCN(O)C(C)=O)C(=O)NC(C(=O)NC(C(=O)O)C(O)C1SC(n2ccc(=NC(N)=O)n(C)c2=O)C(O)C1O)C(C)O (some centres unmarked) [Compound 20] (H-[Orn(N5-OH,N5-Ac)][Orn(N5-OH,N5-Ac)][Orn(N5-OH,N5-Ac)][ξT][X1]-OH) | – | 13 | – | 14 | – | 14 | 17 | 15 | 25
5 | CC(=O)N(O)CCC[C@H](NC(=O)[C@H](CCCN(O)C(C)=O)NC(=O)[C@@H](N)CCCN(O)C(C)=O)C(=O)NC(C(=O)O)C(O)C1SC(n2ccc(=O)n(C)c2=O)C(O)C1O (some centres unmarked) [Compound 24] | – | – | – | 18 | – | 18 | 18 | – | –
